According to patent publication US6506749B2, “7-oxo-pyridopyrimidines (I)” (Syntex (U.S.A.) LLC, priority 2000, dated 2003):
Counter-ions that a name gives are not always drawn.

| melting point | SMILES |
| --- | --- |
| 240 to 243 °C | Cl.Nn1c(=O)c(-c2ccccc2Cl)cc2cnc(NC3CCS(=O)(=O)CC3)nc21 |
| 263.6 to 264.2 °C | Cl.Cn1c(=O)c(-c2ccccc2Cl)cc2cnc(NC3CCC(C(=O)O)CC3)nc21 (stereo not shown) |
| 205 to 213 °C | Cl.O=c1[nH]c2nc(NCC3CCC(O)CC3)ncc2cc1-c1ccccc1Cl (stereo not shown) |
| > 300 °C | CS(=O)(=O)N[C@H]1CC[C@H](Nc2ncc3cc(-c4ccccc4Cl)c(=O)[nH]c3n2)CC1.Cl |
| > 300 °C | CC(=O)O[C@H]1CC[C@H](Nc2ncc3cc(-c4ccccc4Cl)c(=O)[nH]c3n2)CC1.Cl |
| 265.5 to 269.9 °C | Cl.O=C1CCC(Nc2ncc3cc(-c4ccccc4Cl)c(=O)[nH]c3n2)CC1 |
| > 300 °C | Cl.O=c1[nH]c2nc(NC3CCNCC3)ncc2cc1-c1ccccc1Cl |
| 234.7 to 235.4 °C | Cl.Cn1c(=O)c(-c2ccccc2Cl)cc2cnc(N[C@H]3CC[C@H](OC(N)=O)CC3)nc21 |
| 291 to 293.5 °C | Cl.NC(=O)O[C@H]1CC[C@H](Nc2ncc3cc(-c4ccccc4Cl)c(=O)[nH]c3n2)CC1 |
| 260.9 to 261.1 °C | Cl.Cn1c(=O)c(-c2ccccc2Cl)cc2cnc(N[C@H]3CC[C@H](NS(C)(=O)=O)CC3)nc21 |
| 226.5 to 229 °C | CN(C)S(=O)(=O)N[C@H]1CC[C@H](Nc2ncc3cc(-c4ccccc4Cl)c(=O)n(C)c3n2)CC1.Cl |
| 210.5 to 212 °C | Cl.O=c1c(-c2ccccc2Cl)cc2cnc(N[C@H]3CC[C@H](O)CC3)nc2n1CCO |
| 262.2 to 262.5 °C | CN(C)S(=O)(=O)N[C@H]1CC[C@H](Nc2ncc3cc(-c4ccccc4Cl)c(=O)[nH]c3n2)CC1.Cl |
| 218.2 to 218.5 °C | CO[C@H]1CC[C@H](Nc2ncc3cc(-c4ccccc4Cl)c(=O)n(C)c3n2)CC1.Cl |
| 241.7 to 242.3 °C | Cl.O=c1c(-c2ccccc2Cl)cc2cnc(N[C@H]3CC[C@H](O)CC3)nc2n1C1CC1 |
| 213.9 to 214.4 °C | COC(=O)O[C@H]1CC[C@H](Nc2ncc3cc(-c4ccccc4Cl)c(=O)n(C)c3n2)CC1.Cl |
| > 300 °C | Cl.O=c1[nH]c2nc(NC3CCOCC3)ncc2cc1-c1ccccc1Cl |
| 192.1 to 198.3 °C | CCOC(=O)C1CCC(Nc2ncc3cc(-c4ccccc4Cl)c(=O)n(C)c3n2)CC1.Cl (stereo not shown) |
| 163.4 to 171.1 °C | Cn1c(=O)c(-c2ccccc2Cl)cc2cnc(N[C@H]3CC[C@H](N)CC3)nc21 (as salt: HCl) [Example 38] |
| 232.1 to 233.1 °C | Cn1c(=O)c(-c2ccccc2Cl)cc2cnc(NC3CCSCC3)nc21 (as salt: HCl) [Example 78, 2-(4-tetrahydrothiopyranylamino)-6-(2-chlorophenyl)-8-methyl-8H-pyrido[2,3-d]pyrimidin-7-one] |
| 191.1 to 194.3 °C | O=c1[nH]c2nc(N[C@H]3CC[C@H](O)CC3)ncc2cc1-c1ccccc1Cl (as salt: hydrochloride) [Example 11, 2-(trans-4-hydroxycyclohexylamino)-6-(2-chlorophenyl)-pyrido[2,3-d]pyrimidin-7-ol] |
| 190.3 to 191.4 °C | Cn1c(=O)c(-c2ccccc2Cl)cc2cnc(N[C@H]3CC[C@H](N)CC3)nc21 (as salt: hydrochloride) [Example 13, 2-(trans-4-aminocyclohexylamino)-6-(2-chlorophenyl)-8-methyl-pyrido[2,3-d]pyrimidin-7-one] |
| 260.9 to 261.1 °C | Cn1c(=O)c(-c2ccccc2Cl)cc2cnc(N[C@H]3CC[C@H](NS(C)(=O)=O)CC3)nc21 (as salt: hydrochloride) [Example 14, 2-(trans-4-methanesulfonylaminocyclohexylamino)-6-(2-chlorophenyl)-8-methyl-pyrido[2,3-d]pyrimidin-7-one] |
| 163.4 to 171.1 °C | Cn1c(=O)c(-c2ccccc2Cl)cc2cnc(N[C@H]3CC[C@H](O)CC3)nc21 (as salt: salt) [Cpd 1] |
| > 300 °C | N[C@H]1CC[C@H](Nc2ncc3cc(-c4ccccc4Cl)c(=O)[nH]c3n2)CC1 (as salt: salt) [Cpd 17] |
| 196.1 to 196.6 °C | Cn1c(=O)c(-c2ccccc2Cl)cc2cnc(NC3CCC(OC=O)CC3)nc21 (stereo not shown) [Cpd 4] |
| 200.9 to 201.2 °C | CC(=O)OC1CCC(Nc2ncc3cc(-c4ccccc4Cl)c(=O)n(C)c3n2)CC1 (stereo not shown) [Cpd 5] |
| > 300 °C | O=CO[C@H]1CC[C@H](Nc2ncc3cc(-c4ccccc4Cl)c(=O)[nH]c3n2)CC1 [Cpd 19] |

More lines, now with the values behind:

| SMILES | melting point |
| --- | --- |
| Cl.Cn1c(=O)c(-c2ccccc2Cl)cc2cnc(N[C@H]3CCCCNC3=O)nc21 | 140 to 144 °C |
| Cl.Cn1c(=O)c(-c2ccccc2Cl)cc2cnc(NC3CCN(S(=O)(=O)C(F)(F)F)CC3)nc21 | 134 to 140 °C |
| CC(C)S(=O)(=O)N1CCC(Nc2ncc3cc(-c4ccccc4Cl)c(=O)n(C)c3n2)CC1.Cl | 132 to 136 °C |
| CCS(=O)(=O)N1CCC(Nc2ncc3cc(-c4ccccc4Cl)c(=O)n(C)c3n2)CC1.Cl | 144 to 150 °C |
| Cl.Cn1cc(/C=N\C(=N)NC2CCOCC2)cc(-c2ccccc2N)c1=O | 210.7 to 211.9 °C |
| Cl.Cn1c(=O)c(-c2ccccc2Cl)cc2cnc(NN3CCN(CCO)CC3)nc21 | 274.4 to 274.8 °C |
| Cc1ccccc1-c1cc2cnc(NC3CCN(S(C)(=O)=O)CC3)nc2n(C)c1=O.Cl | 221.4 to 221.8 °C |
| CCS(=O)(=O)N1CCC(Nc2ncc3cc(-c4ccccc4C)c(=O)n(C)c3n2)CC1.Cl | 218.5 to 219.3 °C |
| Cl.Cn1c(=O)c(-c2ccccc2Cl)cc2cnc(N[C@@H]3CCOC3)nc21 | 171.9 to 173 °C |
| CCS(=O)(=O)N1CCC(Nc2ncc3cc(-c4ccccc4F)c(=O)n(C)c3n2)CC1.Cl | 192.5 to 195 °C |
| CC(C)S(=O)(=O)N1CCC(Nc2ncc3cc(-c4ccccc4F)c(=O)n(C)c3n2)CC1.Cl | 204 to 209 °C |
| CC1C(=O)C(c2ccccc2Cl)=Cc2cnc(NOCc3ccccc3)nc21.Cl (stereo not shown) | 199.2 to 199.5 °C |
| Cc1ccccc1-c1cc2cnc(NC3CCN(S(=O)(=O)C(C)C)CC3)nc2n(C)c1=O.Cl | 142 to 149 °C |
| Cc1ccccc1-c1cc2cnc(NC3CCN(S(=O)(=O)C(F)(F)F)CC3)nc2n(C)c1=O.Cl | 153 to 162 °C |
| COc1ccccc1-c1cc2cnc(NC3CCN(S(C)(=O)=O)CC3)nc2n(C)c1=O.Cl | 202.7 to 204.3 °C |
| CCS(=O)(=O)N1CCC(Nc2ncc3cc(-c4ccccc4OC)c(=O)n(C)c3n2)CC1.Cl | 120.3 to 139.7 °C |
| COc1ccccc1-c1cc2cnc(NC3CCN(S(=O)(=O)C(F)(F)F)CC3)nc2n(C)c1=O.Cl | 140.8 to 147.3 °C |
| Cl.Nn1c(=O)c(-c2ccccc2Cl)cc2cnc(NC3CCOCC3)nc21 | 207.1 to 215.9 °C |
| CC(C)(C)Cn1c(=O)c(-c2ccccc2Cl)cc2cnc(NC3CCS(=O)(=O)CC3)nc21.Cl | 223.7 to 230.2 °C |
| CCn1c(=O)c(-c2ccccc2Cl)cc2cnc(NC3CCS(=O)(=O)CC3)nc21.Cl | 285.2 to 286.7 °C |
| CC(CCO)Nc1ncc2cc(-c3ccccc3Cl)c(=O)n(C)c2n1.Cl (stereo not shown) | 180.7 to 189.2 °C |

| SMILES | melting point |
| --- | --- |
| C[C@H](Nc1ncc2cc(-c3ccccc3Cl)c(=O)n(N)c2n1)C(C)(C)O.Cl | > 300 °C |
| CC(C)CNn1c(=O)c(-c2ccccc2Cl)cc2cnc(NC3CCOCC3)nc21.Cl | 111.3 to 117.5 °C |
| Cl.Cn1c(=O)c(-c2ccccc2Cl)cc2cnc(NC3CCC4(CC3)OCC(CO)CO4)nc21 (stereo not shown) | 146 to 150 °C |
| Cl.Cn1c(=O)c(-c2ccccc2Cl)cc2cnc(NC3CCN(CC#N)CC3)nc21 | 228.3 to 228.9 °C |
| COC(=O)CN1CCC(Nc2ncc3cc(-c4ccccc4Cl)c(=O)n(C)c3n2)CC1.Cl | 150 to 168 °C |
| Cl.Cn1c(=O)c(-c2ccccc2Cl)cc2cnc(NC3(CO)CCCCC3)nc21 | 185 to 188.6 °C |
| CO[C@H]1CC[C@H](N(C)c2ncc3cc(-c4ccccc4Cl)c(=O)n(C)c3n2)CC1.Cl | 182.3 to 183.1 °C |
| Cl.Cn1c(=O)c(-c2ccccc2Cl)cc2cnc(NC3CCN(CCS(C)(=O)=O)CC3)nc21 | 204.6 to 205.6 °C |
| CNC(=O)CN1CCC(Nc2ncc3cc(-c4ccccc4Cl)c(=O)n(C)c3n2)CC1.Cl | 64 to 102.6 °C |
| Cl.Cn1c(=O)c(-c2ccccc2Cl)cc2cnc(N[C@H]3CC[C@@](C)(O)CC3)nc21 | 156 to 169 °C |
| Cl.O=c1c(-c2ccccc2Cl)cc2cnc(NC3CCOCC3)nc2n1-c1ccc(F)cc1 | 150 to 154 °C |
| CS(=O)(=O)N1CCC(Nc2ncc3cc(-c4ccccc4Cl)c(=O)n(CC(F)(F)F)c3n2)CC1.Cl | 148.6 to 151.6 °C |
| O=c1c(-c2ccccc2Cl)cc2cnc(N[C@H]3CC[C@H](O)CC3)nc2n1Cc1ccccc1 (as salt: HCl) [Example 41] | 202 to 206 °C |
| O=C1c2ccccc2C(=O)N1CCn1c(=O)c(-c2ccccc2Cl)cc2cnc(N[C@H]3CC[C@H](O)CC3)nc21 (as salt: HCl) [Example 77] | 208 to 210 °C |
| CS(=O)(=O)N1CCC(Nc2ncc3cc(-c4ccccc4Cl)c(=O)n(-c4ccc(F)cc4)c3n2)CC1 (as salt: HCl) [Example 96] | 165 to 169 °C |
| CS(=O)(=O)N[C@H]1CC[C@H](Nc2ncc3c(n2)=NC(=O)C(c2ccccc2Cl)C=3)CC1 (stereo partly drawn) (as salt: hydrochloric acid salt) [Example 16, 2-(trans-4-methanesulfonylaminocyclohexylamino)-6-(2-chlorophenyl)-pyrido[2,3-d]pyrimidin-7-one] | > 300 °C |
| O=C1CCC(Nc2ncc3cc(-c4ccccc4Cl)c(=O)n(CC(F)(F)F)c3n2)CC1 (as salt: hydrochloride) [Example 59] | 251.2 to 252 °C |
| CS(=O)(=O)N1CCC(Nc2ncc3cc(-c4ccccc4Cl)c(=O)n(C4CC4)c3n2)CC1 (as salt: hydrochloride) [Example 88] | 128 to 141.5 °C |
| CCS(=O)(=O)CCC(C)Nc1ncc2cc(-c3ccccc3Cl)c(=O)n(C)c2n1 (stereo not shown) (as salt: hydrochloride) [Example 102] | 160.1 to 167 °C |
| Cn1c(=O)c(-c2ccccc2Cl)cc2cnc(NC3(CO)CCCC3)nc21 (as salt: salt) [Cpd 2] | 213.7 to 214.6 °C |
| Cn1c(=O)c(-c2ccccc2Cl)cc2cnc(NC3CCC4(CC3)OCCCO4)nc21 [Cpd 8] | 196.1 to 196.5 °C |
